Our source for the MIC and EC50 values is patent US10919916B2, “Boron-containing small molecules” (Bill & Melinda Gates Foundation, priority 2016, dated 2021).

In brackets after ≈: the same amount, converted by molar mass. Like-named read-outs stand apart in the source and are kept apart here. Some results are limits rather than exact numbers.

Common to all, as to assay type: cell-based
Test [1] deals with Staphylococcus aureus, MRSA (ATCC 33591). Description: Antibacterial MIC assay (microbroth dilution, CLSI). The settings on record: read-out: MIC Staphylococcus aureus, MRSA (ATCC 33591). The method in brief: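 Microbroth dilution per CLSI M07-A10/M100-S25 in cation-adjusted Mueller-Hinton broth, with 3% lysed horse blood added for S. pneumoniae. Inoculum from a 0.5 McFarland direct colony suspension, diluted to 5×10^5 CFU/mL in the well. Compounds were 2-fold serially diluted; MIC read against a growth control.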
(Broth dilution looks for growth in wells or tubes with falling amounts of substance.)

The subject of test [2] is Streptococcus pneumoniae (ATCC 49619). Described as above. The method, boiled down: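 CLSI broth microdilution: 2-fold compound dilutions in cation-adjusted Mueller-Hinton broth supplemented with 3% lysed horse blood for S. pneumoniae, inoculum 5×10^5 CFU/mL from a 0.5 McFarland direct colony suspension, with growth control.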
Test [3] deals with Wolbachia pipientis in C6/36 cell line. Description: Anti-Wolbachia high-content assay. The settings on record: read-out: EC50 Wolbachia pipientis in C6/36 cell line. How it is done:
After 15 minutes, all media was removed from each well and fresh media (no stain) was added. Imaging of each well was accomplished using a Perkin Elmer Operetta high-content imaging system. Five fields per well were imaged using a confocal 60× objective with the Fluorescein filter (excitation filter: 460-490 nm; emission filter: 500-550 nm). Images were analyzed using the Perkin Elmer Harmony software to score each intact cell on the basis of texture complexity of the cytoplasm. Full details can be found in: […]. et al, J. Biomol.

The mark [4] stands for this setting: microbroth dilution, cation-adjusted Mueller-Hinton broth, 35° C. for 16-20 hours.
The mark [5] stands for this setting: ATCC49619, microbroth dilution, 3% lysed horse blood, 35° C. for 16-20 hours, read-out: MIC Streptococcus pneumoniae (ATCC 49619).
Where [6] appears, read: C6/36 (wAlbB) cells, 7 days at 26° C., 50% reduction of Wolbachia.

Usually MIC stands for the least concentration at which growth counts as inhibited. Turning to `C=C[C@]1(C)C[C@@H](OC(=O)COc2ccc3c(c2F)B(O)N(S(C)(=O)=O)N=C3)[C@]2(C)[C@H](C)CC[C@]3(C[C@H](F)C(=O)[C@H]32)[C@@H](C)[C@@H]1O` [Compound 76, (2S,3aR,4R,5R,7S,8S,9R,9aS,12R)-2-fluoro-8-hydroxy-4,7,9,12-tetramethyl-3-oxo-7-vinyldecahydro-4,9a-propanocyclopenta[8]annulen-5-yl 2-((8-fluoro-1-hydroxy-2-(methylsulfonyl)-1,2-dihydrobenzo[d][1,2,3]diazaborinin-7-yl)oxy)acetate], the MIC in test [1] (setting [4]) and in test [2] (setting [5]) was 0.5 to 2 µg/mL (≈ 0.786 to 3.14 µM) in each case. The EC50 in test [3] (setting [6]) is above 1000 nM.

Turning to `C=C[C@]1(C)C[C@@H](OC(=O)COc2ccc3c(c2F)B(O)N(S(C)(=O)=O)N=C3)[C@]2(C)[C@H](C)CC[C@]3(C[C@H](O)C(=O)[C@H]32)[C@@H](C)[C@@H]1O` [Compound 77, (2S,3aR,4R,5R,7S,8S,9R,9aS,12R)-2,8-dihydroxy-4,7,9,12-tetramethyl-3-oxo-7-vinyldecahydro-4,9a-propanocyclopenta[8]annulen-5-yl 2-((8-fluoro-1-hydroxy-2-(methylsulfonyl)-1,2-dihydrobenzo[d][1,2,3]diazaborinin-7-yl)oxy)acetate], the MIC in test [1] (setting [4]) was in the range of 4 to 32 µg/mL (≈ 6.3 to 50.4 µM); in test [2] (setting [5]), 0.5 to 2 µg/mL (≈ 0.788 to 3.15 µM). In addition, the EC50 in test [3] (setting [6]) is above 1000 nM.

In the case of `C=C[C@]1(C)C[C@@H](OC(=O)COc2ccc3c(c2)B(O)N(S(C)(=O)=O)N=C3)[C@]2(C)[C@H](C)CC[C@]3(C[C@H](O)C(=O)[C@H]32)[C@@H](C)[C@@H]1O` [Compound 78, (2S,3aR,4R,5R,7S,8S,9R,9aS,12R)-2,8-dihydroxy-4,7,9,12-tetramethyl-3-oxo-7-vinyldecahydro-4,9a-propanocyclopenta[8]annulen-5-yl 2-((1-hydroxy-2-(methylsulfonyl)-1,2-dihydrobenzo[d][1,2,3]diazaborinin-7-yl)oxy)acetate], the minimum inhibitory concentration (MIC) in test [1] (setting [4]) and in test [2] (setting [5]) was 0.5 to 2 µg/mL (≈ 0.811 to 3.24 µM) each time. In addition, the EC50 in test [3] (setting [6]) was determined as 13 nM.

Consider `C=C[C@]1(C)C[C@@H](OC(=O)COc2ccc3c(c2)B(O)N(S(C)(=O)=O)N=C3)[C@]2(C)[C@H](C)CC[C@]3(C[C@H](F)C(=O)[C@H]32)[C@@H](C)[C@@H]1O` [Compound 79, (2S,3aR,4R,5R,7S,8S,9R,9aS,12R)-2-fluoro-8-hydroxy-4,7,9,12-tetramethyl-3-oxo-7-vinyldecahydro-4,9a-propanocyclopenta[8]annulen-5-yl 2-((1-hydroxy-2-(methylsulfonyl)-1,2-dihydrobenzo[d][1,2,3]diazaborinin-7-yl)oxy)acetate], for which the MIC in test [1] (setting [4]) and in test [2] (setting [5]) was 0.5 to 2 µg/mL (≈ 0.808 to 3.23 µM) throughout. Also, the EC50 in test [3] (setting [6]) stood at 56 nM.

As for `C=C[C@]1(C)C[C@@H](OC(=O)COc2ccc3c(c2F)B(O)NN=C3)[C@]2(C)[C@H](C)CC[C@]3(CCC(=O)[C@H]32)[C@@H](C)[C@@H]1O` [Compound 81, (3aR,4R,5R,7S,8S,9R,9aS,12R)-8-hydroxy-4,7,9,12-tetramethyl-3-oxo-7-vinyldecahydro-4,9a-propanocyclopenta[8]annulen-5-yl 2-((8-fluoro-1-hydroxy-1,2-dihydrobenzo[d][1,2,3]diazaborinin-7-yl)oxy)acetate], the MIC in test [1] was below 0.25 µg/mL; in test [2] (ATCC49619, read-out: MIC Streptococcus pneumoniae (ATCC 49619)) it was below 0.25 µg/mL. Besides, the EC50 in test [3] (C6/36, […]) stood at 34 nM.

As for `C=C[C@]1(C)C[C@@H](OC(=O)COc2ccc3c(c2)B(O)N(C)N=C3)[C@]2(C)[C@H](C)CC[C@]3(C[C@H](O)C(=O)[C@H]32)[C@@H](C)[C@@H]1O` [Compound 82, (2S,3aR,4R,5R,7S,8S,9R,9aS,12R)-2,8-dihydroxy-4,7,9,12-tetramethyl-3-oxo-7-vinyldecahydro-4,9a-propanocyclopenta[8]annulen-5-yl 2-((1-hydroxy-2-methyl-1,2-dihydrobenzo[d][1,2,3]diazaborinin-7-yl)oxy)acetate], the MIC was 0.5 to 2 µg/mL (≈ 0.905 to 3.62 µM) in test [1] (setting [4]) and below 0.25 µg/mL in test [2] (setting [5]). Further, the EC50 in test [3] (setting [6]) was 36 nM.
